Source: the supplement of paper PMC13380429
± gives the standard deviation of the averaged measurements.

How the values were obtained:
Details in all cases: 72 h
Caco-2 [1] = experiment: cell viability relative to DMSO; higher = less toxic
Calu-3 [2] = experiment: as above
HepG2 [3] = experiment: as above
U2OS [4] = experiment: as above
Vero E6 [5] = experiment: as above
Calu-3 [6] = experiment: relative viability EC50 (midpoint between 100% and the lowest measured viability); higher = less toxic
HepG2 [7] = experiment: as above
Caco-2 [8] = experiment: drug sensitivity score (DSS) for viability; higher = more toxic; extreme values may be limits of the assay
Calu-3 [9] = experiment: as above
HepG2 [10] = experiment: as above
U2OS [11] = experiment: as above
Vero E6 [12] = experiment: as above
Caco-2 [13] = experiment: relative viability EC50 (midpoint between 100% and the lowest measured viability); higher = less toxic
U2OS [14] = experiment: as above
Vero E6 [15] = experiment: as above

COC(=O)C1=C(C)NC(C)=C(C(=O)OCC(C)C)C1c1ccccc1[N+](=O)[O-] (stereo not drawn) [nisoldipine]
cell viability (Caco-2 [1]; 1 nM): 98.2%
cell viability (Caco-2 [1]; 10 nM): 109%
cell viability (Caco-2 [1]; 100 nM): 99.1%
cell viability (Caco-2 [1]; 1000 nM): 93.8%
cell viability (Caco-2 [1]; 10000 nM): 63.1%
cell viability (Calu-3 [2]; 1 nM): 97.6%
cell viability (Calu-3 [2]; 10 nM): 106%
cell viability (Calu-3 [2]; 100 nM): 107%
cell viability (Calu-3 [2]; 1000 nM): 94.6%
cell viability (Calu-3 [2]; 10000 nM): 103%
cell viability (HepG2 [3]; 1 nM): 100%
cell viability (HepG2 [3]; 10 nM): 98.7%
cell viability (HepG2 [3]; 100 nM): 104%
cell viability (HepG2 [3]; 1000 nM): 92.4%
cell viability (HepG2 [3]; 10000 nM): 42.6%
cell viability (U2OS [4]; 1 nM): 101%
cell viability (U2OS [4]; 10 nM): 106%
cell viability (U2OS [4]; 100 nM): 102%
cell viability (U2OS [4]; 1000 nM): 99.4%
cell viability (U2OS [4]; 10000 nM): 51.1%
cell viability (Vero E6 [5]; 1 nM): 100%
cell viability (Vero E6 [5]; 10 nM): 101%
cell viability (Vero E6 [5]; 100 nM): 102%
cell viability (Vero E6 [5]; 1000 nM): 94.6%
cell viability (Vero E6 [5]; 10000 nM): 60.7%
relative viability EC50 (Calu-3 [6]): > 10 µM
relative viability EC50 (HepG2 [7]): 2.1 µM
drug sensitivity score (Caco-2 [8]): 2.8
drug sensitivity score (Calu-3 [9]): 0
drug sensitivity score (HepG2 [10]): 4.4
drug sensitivity score (U2OS [11]): 2.6
drug sensitivity score (Vero E6 [12]): 2.8

CCCCC1C(=O)N(c2ccccc2)N(c2ccccc2)C1=O [phenylbutazone]
drug sensitivity score (Calu-3 [9]): 0
drug sensitivity score (HepG2 [10]): 0
drug sensitivity score (U2OS [11]): 0
drug sensitivity score (Vero E6 [12]): 0

Cc1ccnc(NC(=O)C(C)c2cccc(C(=O)c3ccccc3)c2)c1 (stereo not drawn) [piketoprofen]
cell viability (Caco-2 [1]; 1 nM): 96.7%
cell viability (Caco-2 [1]; 10 nM): 87.3%
cell viability (Caco-2 [1]; 100 nM): 91.7%
cell viability (Caco-2 [1]; 1000 nM): 93.5%
cell viability (Caco-2 [1]; 10000 nM): 91.5%
cell viability (HepG2 [3]; 1 nM): 103%
cell viability (HepG2 [3]; 10 nM): 89.3%
cell viability (HepG2 [3]; 100 nM): 111%
cell viability (HepG2 [3]; 1000 nM): 107%
cell viability (HepG2 [3]; 10000 nM): 80.8%
cell viability (U2OS [4]; 1 nM): 105%
cell viability (U2OS [4]; 10 nM): 102%
cell viability (U2OS [4]; 100 nM): 97.7%
cell viability (U2OS [4]; 1000 nM): 103%
cell viability (U2OS [4]; 10000 nM): 95.3%
cell viability (Vero E6 [5]; 1 nM): 98.3%
cell viability (Vero E6 [5]; 10 nM): 98.8%
cell viability (Vero E6 [5]; 100 nM): 99.8%
cell viability (Vero E6 [5]; 1000 nM): 106%
cell viability (Vero E6 [5]; 10000 nM): 96.1%
relative viability EC50 (Caco-2 [13]): > 10 µM
relative viability EC50 (HepG2 [7]): > 10 µM
relative viability EC50 (U2OS [14]): > 10 µM
relative viability EC50 (Vero E6 [15]): > 10 µM
drug sensitivity score (Caco-2 [8]): 0
drug sensitivity score (HepG2 [10]): 0.3
drug sensitivity score (U2OS [11]): 0
drug sensitivity score (Vero E6 [12]): 0

COc1ccc(Cl)c(Nc2nc3ccccc3nc2NS(=O)(=O)c2cccc(NC(=O)C(C)(C)N)c2)c1 [pilaralisib]
cell viability (Caco-2 [1]; 1 nM): 91.3%
cell viability (Caco-2 [1]; 10 nM): 96.4%
cell viability (Caco-2 [1]; 100 nM): 109%
cell viability (Caco-2 [1]; 1000 nM): 93.9%
cell viability (Caco-2 [1]; 10000 nM): 68.3%
cell viability (Calu-3 [2]; 1 nM): 93.9%
cell viability (Calu-3 [2]; 10 nM): 86%
cell viability (Calu-3 [2]; 100 nM): 96.8%
cell viability (Calu-3 [2]; 1000 nM): 88%
cell viability (Calu-3 [2]; 10000 nM): 60.2%
cell viability (HepG2 [3]; 1 nM): 96.9%
cell viability (HepG2 [3]; 10 nM): 97.5%
cell viability (HepG2 [3]; 100 nM): 96.9%
cell viability (HepG2 [3]; 1000 nM): 86.6%
cell viability (HepG2 [3]; 10000 nM): 57.9%
cell viability (U2OS [4]; 1 nM): 97.9%
cell viability (U2OS [4]; 10 nM): 94.4%
cell viability (U2OS [4]; 100 nM): 98.9%
cell viability (U2OS [4]; 1000 nM): 94.1%
cell viability (U2OS [4]; 10000 nM): 81.4%
cell viability (Vero E6 [5]; 1 nM): 97%
cell viability (Vero E6 [5]; 10 nM): 98.7%
cell viability (Vero E6 [5]; 100 nM): 93.8%
cell viability (Vero E6 [5]; 1000 nM): 99.4%
cell viability (Vero E6 [5]; 10000 nM): 81.2%
relative viability EC50 (U2OS [14]): > 10 µM
relative viability EC50 (Vero E6 [15]): > 10 µM
drug sensitivity score (Caco-2 [8]): 2.4
drug sensitivity score (Calu-3 [9]): 3.5
drug sensitivity score (HepG2 [10]): 3.8
drug sensitivity score (U2OS [11]): 1.1
drug sensitivity score (Vero E6 [12]): 0.6

O=C(CCBr)N1CCN(C(=O)CCBr)CC1 [pipobroman]
cell viability (Caco-2 [1]; 1 nM): 115%
cell viability (Caco-2 [1]; 10 nM): 115%
cell viability (Caco-2 [1]; 100 nM): 97.3%
cell viability (Caco-2 [1]; 1000 nM): 114%
cell viability (Caco-2 [1]; 10000 nM): 99%
cell viability (HepG2 [3]; 1 nM): 90.2%
cell viability (HepG2 [3]; 10 nM): 112%
cell viability (HepG2 [3]; 100 nM): 101%
cell viability (HepG2 [3]; 1000 nM): 83.7%
cell viability (HepG2 [3]; 10000 nM): 102%
cell viability (U2OS [4]; 1 nM): 97.8%
cell viability (U2OS [4]; 10 nM): 104%
cell viability (U2OS [4]; 100 nM): 99.7%
cell viability (U2OS [4]; 1000 nM): 97.7%
cell viability (U2OS [4]; 10000 nM): 94%
relative viability EC50 (Caco-2 [13]): > 10 µM
relative viability EC50 (HepG2 [7]): > 10 µM
relative viability EC50 (U2OS [14]): > 10 µM
drug sensitivity score (Caco-2 [8]): 0
drug sensitivity score (HepG2 [10]): 0
drug sensitivity score (U2OS [11]): 0

O=C(O)c1c(Cl)c(Cl)c(Cl)c(Cl)c1-c1c2cc(I)c(=O)c(I)c-2oc2c(I)c(O)c(I)cc12 [rose-bengal]
cell viability (Caco-2 [1]; 1 nM): 96.1 ± 5.2%
cell viability (Caco-2 [1]; 10 nM): 93.7 ± 6.9%
cell viability (Caco-2 [1]; 100 nM): 98.4 ± 7.9%
cell viability (Caco-2 [1]; 1000 nM): 83.3 ± 0.92%
cell viability (Caco-2 [1]; 10000 nM): 52.2 ± 6.1%
cell viability (Calu-3 [2]; 1 nM): 96 ± 5.7%
cell viability (Calu-3 [2]; 10 nM): 96.7 ± 3.9%
cell viability (Calu-3 [2]; 100 nM): 97.2 ± 4.7%
cell viability (Calu-3 [2]; 1000 nM): 97.8 ± 12%
cell viability (Calu-3 [2]; 10000 nM): 54.4 ± 0.71%
cell viability (HepG2 [3]; 1 nM): 98.5 ± 1.1%
cell viability (HepG2 [3]; 10 nM): 92.7 ± 7%
cell viability (HepG2 [3]; 100 nM): 102 ± 3.8%
cell viability (HepG2 [3]; 1000 nM): 86.2 ± 5.3%
cell viability (HepG2 [3]; 10000 nM): 61.6 ± 4.2%
cell viability (U2OS [4]; 1 nM): 99.5 ± 3%
cell viability (U2OS [4]; 10 nM): 101 ± 7.5%
cell viability (U2OS [4]; 100 nM): 98.8 ± 0.28%
cell viability (U2OS [4]; 1000 nM): 92.65 ± 0.49%
cell viability (U2OS [4]; 10000 nM): 54 ± 5.6%
cell viability (Vero E6 [5]; 1 nM): 97.6 ± 4%
cell viability (Vero E6 [5]; 10 nM): 99.6%
cell viability (Vero E6 [5]; 100 nM): 101 ± 3%
cell viability (Vero E6 [5]; 1000 nM): 90.5 ± 0.42%
cell viability (Vero E6 [5]; 10000 nM): 57.1 ± 5.8%
drug sensitivity score (Caco-2 [8]): 4.6 ± 0.14
drug sensitivity score (Calu-3 [9]): 3 ± 1.4
drug sensitivity score (HepG2 [10]): 3.8 ± 0.85
drug sensitivity score (U2OS [11]): 3.6 ± 0.42
drug sensitivity score (Vero E6 [12]): 3.7 ± 0.42

O=C(O)C(O)C(O)C(=O)O (stereo not drawn) [tartaric-acid]
drug sensitivity score (Calu-3 [9]): 0
drug sensitivity score (HepG2 [10]): 0
drug sensitivity score (U2OS [11]): 0
drug sensitivity score (Vero E6 [12]): 0

CC(C)(C)c1cc(/C=C(\C#N)C(N)=S)cc(C(C)(C)C)c1O [tyrphostin-AG-879]
cell viability (Caco-2 [1]; 1 nM): 99.3%
cell viability (Caco-2 [1]; 10 nM): 94.6%
cell viability (Caco-2 [1]; 100 nM): 96.9%
cell viability (Caco-2 [1]; 1000 nM): 93.2%
cell viability (Caco-2 [1]; 10000 nM): 50.5%
cell viability (Calu-3 [2]; 1 nM): 101%
cell viability (Calu-3 [2]; 10 nM): 97.1%
cell viability (Calu-3 [2]; 100 nM): 99.4%
cell viability (Calu-3 [2]; 1000 nM): 91%
cell viability (Calu-3 [2]; 10000 nM): 66.8%
cell viability (HepG2 [3]; 1 nM): 93.6%
cell viability (HepG2 [3]; 10 nM): 94.7%
cell viability (HepG2 [3]; 100 nM): 104%
cell viability (HepG2 [3]; 1000 nM): 106%
cell viability (HepG2 [3]; 10000 nM): 27.5%
cell viability (U2OS [4]; 1 nM): 98.9%
cell viability (U2OS [4]; 10 nM): 98.7%
cell viability (U2OS [4]; 100 nM): 98.7%
cell viability (U2OS [4]; 1000 nM): 98.2%
cell viability (U2OS [4]; 10000 nM): 65.7%
cell viability (Vero E6 [5]; 1 nM): 97.4%
cell viability (Vero E6 [5]; 10 nM): 97.5%
cell viability (Vero E6 [5]; 100 nM): 94.3%
cell viability (Vero E6 [5]; 1000 nM): 100%
cell viability (Vero E6 [5]; 10000 nM): 51%
relative viability EC50 (HepG2 [7]): 3.56 µM
drug sensitivity score (Caco-2 [8]): 3.8
drug sensitivity score (Calu-3 [9]): 2.9
drug sensitivity score (HepG2 [10]): 3.6
drug sensitivity score (U2OS [11]): 1.8
drug sensitivity score (Vero E6 [12]): 2.6

CN[C@H]1CN(c2ccc3c(=O)c(C(=O)O)cn(-c4nccs4)c3n2)C[C@@H]1OC [voreloxin]
cell viability (Caco-2 [1]; 1 nM): 94.1%
cell viability (Caco-2 [1]; 10 nM): 93.2%
cell viability (Caco-2 [1]; 100 nM): 99.9%
cell viability (Caco-2 [1]; 1000 nM): 91.6%
cell viability (Caco-2 [1]; 10000 nM): 55.1%
cell viability (Calu-3 [2]; 1 nM): 101%
cell viability (Calu-3 [2]; 10 nM): 98.9%
cell viability (Calu-3 [2]; 100 nM): 104%
cell viability (Calu-3 [2]; 1000 nM): 85.6%
cell viability (Calu-3 [2]; 10000 nM): 58.9%
cell viability (HepG2 [3]; 1 nM): 90.7%
cell viability (HepG2 [3]; 10 nM): 108%
cell viability (HepG2 [3]; 100 nM): 88.5%
cell viability (HepG2 [3]; 1000 nM): 72.6%
cell viability (HepG2 [3]; 10000 nM): 29.1%
cell viability (U2OS [4]; 1 nM): 100%
cell viability (U2OS [4]; 10 nM): 97.6%
cell viability (U2OS [4]; 100 nM): 103%
cell viability (U2OS [4]; 1000 nM): 98%
cell viability (U2OS [4]; 10000 nM): 38.3%
cell viability (Vero E6 [5]; 1 nM): 96.9%
cell viability (Vero E6 [5]; 10 nM): 96.2%
cell viability (Vero E6 [5]; 100 nM): 96.7%
cell viability (Vero E6 [5]; 1000 nM): 88.1%
cell viability (Vero E6 [5]; 10000 nM): 56.1%
relative viability EC50 (HepG2 [7]): 1.29 µM
relative viability EC50 (U2OS [14]): 2.93 µM
drug sensitivity score (Caco-2 [8]): 3.7
drug sensitivity score (Calu-3 [9]): 4.1
drug sensitivity score (HepG2 [10]): 6.9
drug sensitivity score (U2OS [11]): 3.6
drug sensitivity score (Vero E6 [12]): 4

Cc1cccc(C)c1NC(=O)/N=C1\CCCN1C [xilobam]
drug sensitivity score (Calu-3 [9]): 0
drug sensitivity score (HepG2 [10]): 0
drug sensitivity score (U2OS [11]): 0
drug sensitivity score (Vero E6 [12]): 0
